Measured values reported in patent US4804749A, “20-O-Acyl-19,20-enolmacrolide antibiotic derivatives” (Toyo Jozo Co., Ltd., priority 1986, dated 1989).
Converted amounts (≈) assume the structure as drawn.

Legend:
[1] = Antibiotics levels in blood upon oral administration at 100 mg/kg to mice (by the paper disk method); format: in vivo; details: mouse, ND: Below detectable limit; for Cmax: read-out: Antibiotics levels in blood upon oral administration: Peak value
Experimental: (§1) Antibacterial activities of certain compounds (I) of this invention and corresponding 19-formylmacrolide antibiotics as well as their levels in blood and therapeutic effects for infectious diseases upon their oral administration are compared in Table 2.
Antibiotics levels in blood
upon oral administration at
100 mg/kg to mice (by the paper
disk method) (μg · h/ml)

S. aureus, 209P = experiment: MIC against S. aureus, 209P; format: cell-based; details: Staphylococcus aureus
Text: as §1
MIC (μg/ml): S. aureus, 209P

S. pyogenes, S-23 [2] = experiment: MIC against infective microorganism S. pyogenes, S-23; format: cell-based; details: Streptococcus pyogenes, S23
Text: as §1

S. pyogenes, S-23 [3] = experiment: Treatment results of infectious diseases of mice by oral administration; format: in vivo; details: Streptococcus pyogenes, S23; mice infected with S. pyogenes S-23, oral administration
Text: as §1
infectious diseases of mice

SMILES: CCC(=O)OC1CC(=O)OC(CC)C(COC2OC(C)CC(OC)C2OC)C=C(C)C=CC(=O)C(C)CC(CC=O)C(OC2OC(C)C(O)C(N(C)C)C2O)C1C (stereo not drawn) [Example 2a, 3O--Propionyl-4"-deoxydesmycosin, reference compound]
- AUC [1]: 1570 ng·h/mL
- Cmax [1]: 420 ng/mL
- MIC (S. aureus, 209P): 0.2 µg/mL (≈ 0.246 µM)

SMILES: CCC(=O)OC=CC1CC(C)C(=O)C=CC(C)=CC(COC2OC(C)CC(OC)C2OC)C(CC)OC(=O)CC(OC(=O)CC)C(C)C1OC1OC(C)C(O)C(N(C)C)C1O (stereo not drawn) [Example 2b, 3,20-Di-O-propionyl-19, 20-enol-4"-deoxydesmycosin]
- AUC [1]: 2800 ng·h/mL
- Cmax [1]: 2630 ng/mL
- MIC (S. aureus, 209P): 0.39 µg/mL (≈ 0.449 µM)

SMILES: CCC(=O)OC1CC(=O)OC(CC)C(COC2OC(C)C(O)C(OC)C2OC)C=C(C)C=CC(=O)C(C)CC(CC=O)C(OC2OC(C)CC(N(C)C)C2O)C1C (stereo not drawn) [Example 3a, 3O--Propionyl-4'deoxydesmycosin, reference compound]
- MIC (S. pyogenes, S-23 [2]): 0.05 µg/mL (≈ 0.0616 µM)
- AUC [1]: 1790 ng·h/mL
- Cmax [1]: 430 ng/mL
- ED50 (S. pyogenes, S-23 [3]): > 200 mg/kg
- MIC (S. aureus, 209P): 0.2 µg/mL (≈ 0.246 µM)

SMILES: CCC(=O)OC=CC1CC(C)C(=O)C=CC(C)=CC(COC2OC(C)C(O)C(OC)C2OC)C(CC)OC(=O)CC(OC(=O)CC)C(C)C1OC1OC(C)CC(N(C)C)C1O (stereo not drawn) [Example 3b, 3,20-Di-O-propionyl-19,20-enol-4'-deoxydesmycosin]
- MIC (S. pyogenes, S-23 [2]): 0.2 µg/mL (≈ 0.23 µM)
- AUC [1]: 4900 ng·h/mL
- Cmax [1]: 2710 ng/mL
- ED50 (S. pyogenes, S-23 [3]): 59 mg/kg
- MIC (S. aureus, 209P): 0.39 µg/mL (≈ 0.449 µM)

SMILES: CCC(=O)OC1CC(=O)OC(CC)C(COC(=O)N(C)C)C=C(C)C=CC(=O)C(C)CC(CC=O)C(OC2OC(C)C(O)C(N(C)C)C2O)C1C (stereo not drawn) [Ia, 3O--Propionyl-23-O--dimethylcarbamoyl-OMT, reference compound]
- MIC (S. pyogenes, S-23 [2]): 0.1 µg/mL (≈ 0.138 µM)
- ED50 (S. pyogenes, S-23 [3]): > 400 mg/kg
- MIC (S. aureus, 209P): 0.2 µg/mL (≈ 0.276 µM)

SMILES: CCC(=O)OC=CC1CC(C)C(=O)C=CC(C)=CC(COC(=O)N(C)C)C(CC)OC(=O)CC(OC(=O)CC)C(C)C1OC1OC(C)C(O)C(N(C)C)C1O (stereo not drawn) [Ib, 3,20-Di-O-propionyl-19,20-enol-23-O-dimethylcarbamoyl-OMT]
- MIC (S. pyogenes, S-23 [2]): 0.78 µg/mL (≈ 0.999 µM)
- AUC [1]: 6000 ng·h/mL
- Cmax [1]: 3000 ng/mL
- ED50 (S. pyogenes, S-23 [3]): 100 to 200 mg/kg
- MIC (S. aureus, 209P): 0.78 µg/mL (≈ 0.999 µM)
